Test results published in PubChem BioAssay (NCI).
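Dose response: 5 concentrations. Exposure: 48 h. Format: 96-well plates. Endpoint: linear interpolation; highest concentration if not reached. At the TGI there is no net growth.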

Columns and labels:
Test in all cases: NCI anticancer screen, dose series, 48 h
UACC-257 melanoma = test system: UACC-257 melanoma
LOX IMVI melanoma = test system: LOX IMVI melanoma
IGROV1 ovarian = test system: IGROV1 ovarian
NCI-H226 lung = test system: NCI-H226 lung
A549 NSCLC = test system: A549 NSCLC
EKVX NSCLC = test system: EKVX NSCLC
NCI-H460 lung = test system: NCI-H460 lung
DLD-1 colon = test system: DLD-1 colon
SR leukemia = test system: SR leukemia
COLO 205 colon = test system: COLO 205 colon
SW-620 colon = test system: SW-620 colon
SNB-19 CNS = test system: SNB-19 CNS
HOP-62 NSCLC = test system: HOP-62 NSCLC
OVCAR-5 ovarian = test system: OVCAR-5 ovarian
UACC-62 melanoma = test system: UACC-62 melanoma
NCI-H23 lung = test system: NCI-H23 lung
RPMI-8226 leukemia = test system: RPMI-8226 leukemia
OVCAR-3 ovarian = test system: OVCAR-3 ovarian
HCC-2998 colon = test system: HCC-2998 colon
A498 renal = test system: A498 renal
HOP-92 NSCLC = test system: HOP-92 NSCLC
MALME-3M melanoma = test system: MALME-3M melanoma
TK-10 renal = test system: TK-10 renal
HCT-116 colon = test system: HCT-116 colon
UO-31 renal = test system: UO-31 renal
KM20L2 colon = test system: KM20L2 colon
M14 melanoma = test system: M14 melanoma
RXF-631 renal = test system: RXF-631 renal
SF-539 CNS = test system: SF-539 CNS
MOLT-4 leukemia = test system: MOLT-4 leukemia
SK-MEL-2 melanoma = test system: SK-MEL-2 melanoma
RXF 393 renal = test system: RXF 393 renal
ACHN renal = test system: ACHN renal
XF 498 CNS = test system: XF 498 CNS
OVCAR-4 ovarian = test system: OVCAR-4 ovarian
U251 CNS = test system: U251 CNS
HL-60(TB) leukemia = test system: HL-60(TB) leukemia
SK-OV-3 ovarian = test system: SK-OV-3 ovarian
CCRF-CEM leukemia = test system: CCRF-CEM leukemia
KM12 colon = test system: KM12 colon
NCI-H522 lung = test system: NCI-H522 lung
K-562 leukemia = test system: K-562 leukemia
SN12C renal = test system: SN12C renal
DMS 114 small cell lung = test system: DMS 114 small cell lung
SK-MEL-5 melanoma = test system: SK-MEL-5 melanoma
SF-295 CNS = test system: SF-295 CNS
SF-268 CNS = test system: SF-268 CNS
HT29 colon = test system: HT29 colon
M19-MEL melanoma = test system: M19-MEL melanoma
HCT-15 colon = test system: HCT-15 colon
CAKI-1 renal = test system: CAKI-1 renal
DMS 273 small cell lung = test system: DMS 273 small cell lung
SK-MEL-28 melanoma = test system: SK-MEL-28 melanoma
LXFL 529 NSCLC = test system: LXFL 529 NSCLC
OVCAR-8 ovarian = test system: OVCAR-8 ovarian
SNB-78 CNS = test system: SNB-78 CNS
HOP-18 NSCLC = test system: HOP-18 NSCLC
786-0 renal = test system: 786-0 renal
SNB-75 CNS = test system: SNB-75 CNS

C=CCCCC12CCCc3cccc(c31)NC2=O (stereo not given)
TGI (UACC-257 melanoma): 50.4 µM
TGI (LOX IMVI melanoma): 62.3 µM
TGI (IGROV1 ovarian): 33.8 µM
TGI (NCI-H226 lung): 40.3 µM
TGI (A549 NSCLC): 51.2 µM
TGI (EKVX NSCLC): 37.3 µM
TGI (NCI-H460 lung): 33.8 µM
TGI (DLD-1 colon): 42.4 µM
TGI (SR leukemia): > 100 µM
TGI (COLO 205 colon): 40.4 µM
TGI (SW-620 colon): 41.8 µM
TGI (SNB-19 CNS): 61.9 µM
TGI (HOP-62 NSCLC): > 100 µM
TGI (OVCAR-5 ovarian): 43.5 µM
TGI (UACC-62 melanoma): 31.3 µM
TGI (NCI-H23 lung): 36.8 µM
TGI (RPMI-8226 leukemia): 47.3 µM
TGI (OVCAR-3 ovarian): 39.1 µM
TGI (HCC-2998 colon): 30.8 µM
TGI (A498 renal): 45.6 µM
TGI (HOP-92 NSCLC): 31.8 µM
TGI (MALME-3M melanoma): 30.2 µM
TGI (TK-10 renal): 42.4 µM
TGI (HCT-116 colon): 26.4 µM
TGI (UO-31 renal): 87.6 µM
TGI (KM20L2 colon): 47 µM
TGI (M14 melanoma): 31.1 µM
TGI (RXF-631 renal): 55.6 µM
TGI (SF-539 CNS): 47.4 µM
TGI (MOLT-4 leukemia): 55.1 µM
TGI (SK-MEL-2 melanoma): 55.5 µM
TGI (RXF 393 renal): 42.8 µM
TGI (ACHN renal): 86.4 µM
TGI (XF 498 CNS): 41.7 µM
TGI (OVCAR-4 ovarian): 39.8 µM
TGI (U251 CNS): 50.3 µM
TGI (HL-60(TB) leukemia): 48.7 µM
TGI (SK-OV-3 ovarian): 45.3 µM
TGI (CCRF-CEM leukemia): > 100 µM
TGI (KM12 colon): 35.6 µM
TGI (NCI-H522 lung): 31.3 µM
TGI (K-562 leukemia): 78.3 µM
TGI (SN12C renal): > 100 µM
TGI (DMS 114 small cell lung): 33 µM
TGI (SK-MEL-5 melanoma): 34.2 µM
TGI (SF-295 CNS): > 100 µM

Cc1c(C(=O)/C=C/c2cccc3ccccc23)[n+](=O)c2ccccc2n1[O-]
TGI (UACC-257 melanoma): 26.7 µM
TGI (SF-268 CNS): 29.3 µM
TGI (LOX IMVI melanoma): 20.6 µM
TGI (IGROV1 ovarian): 48.7 µM
TGI (NCI-H226 lung): 27.9 µM
TGI (HT29 colon): 24.8 µM
TGI (A549 NSCLC): 35 µM
TGI (EKVX NSCLC): 27.3 µM
TGI (M19-MEL melanoma): 26.4 µM
TGI (HCT-15 colon): 27 µM
TGI (NCI-H460 lung): 32.5 µM
TGI (CAKI-1 renal): 21.8 µM
TGI (DLD-1 colon): 23.3 µM
TGI (SR leukemia): 38.2 µM
TGI (COLO 205 colon): 26.9 µM
TGI (SW-620 colon): 22.7 µM
TGI (SNB-19 CNS): 29.7 µM
TGI (HOP-62 NSCLC): 29.6 µM
TGI (OVCAR-5 ovarian): 28.5 µM
TGI (UACC-62 melanoma): 23.9 µM
TGI (NCI-H23 lung): 25.7 µM
TGI (RPMI-8226 leukemia): 41.8 µM
TGI (DMS 273 small cell lung): 24.5 µM
TGI (OVCAR-3 ovarian): 22.7 µM
TGI (HCC-2998 colon): 30.8 µM
TGI (A498 renal): 30.8 µM
TGI (HOP-92 NSCLC): 22.5 µM
TGI (MALME-3M melanoma): 34.9 µM
TGI (TK-10 renal): 34.6 µM
TGI (HCT-116 colon): 18.8 µM
TGI (UO-31 renal): 31.2 µM
TGI (KM20L2 colon): 27.9 µM
TGI (M14 melanoma): 26.9 µM
TGI (RXF-631 renal): 56.4 µM
TGI (SK-MEL-28 melanoma): 26.6 µM
TGI (SF-539 CNS): 23.8 µM
TGI (LXFL 529 NSCLC): 20.6 µM
TGI (MOLT-4 leukemia): 35.4 µM
TGI (RXF 393 renal): 21.9 µM
TGI (ACHN renal): 29.4 µM
TGI (OVCAR-4 ovarian): 15.7 µM
TGI (OVCAR-8 ovarian): 24.9 µM
TGI (SNB-78 CNS): 47.8 µM
TGI (U251 CNS): 29.1 µM
TGI (HL-60(TB) leukemia): 27.3 µM
TGI (SK-OV-3 ovarian): 32.6 µM
TGI (CCRF-CEM leukemia): 16.8 µM
TGI (HOP-18 NSCLC): 28.6 µM
TGI (786-0 renal): 26.4 µM
TGI (SNB-75 CNS): 27.2 µM
TGI (KM12 colon): 27.1 µM
TGI (NCI-H522 lung): 19.8 µM
TGI (K-562 leukemia): 36.5 µM
TGI (SN12C renal): 29.8 µM
TGI (DMS 114 small cell lung): 16.8 µM
TGI (SF-295 CNS): 29.7 µM

OCc1c(-c2cccc3ccccc23)sc(-c2cccc3ccccc23)c1CO
TGI (UACC-257 melanoma): 25.6 µM
TGI (SF-268 CNS): 26.9 µM
TGI (LOX IMVI melanoma): 30.5 µM
TGI (IGROV1 ovarian): 28 µM
TGI (NCI-H226 lung): 32.9 µM
TGI (HT29 colon): 31.5 µM
TGI (EKVX NSCLC): 25 µM
TGI (M19-MEL melanoma): 29.4 µM
TGI (HCT-15 colon): 27.9 µM
TGI (NCI-H460 lung): 34.7 µM
TGI (SR leukemia): 44 µM
TGI (COLO 205 colon): 24.9 µM
TGI (SW-620 colon): 29.2 µM
TGI (SNB-19 CNS): 25.4 µM
TGI (HOP-62 NSCLC): 26.3 µM
TGI (OVCAR-5 ovarian): 30.9 µM
TGI (UACC-62 melanoma): 23.5 µM
TGI (NCI-H23 lung): 30.1 µM
TGI (RPMI-8226 leukemia): 43.7 µM
TGI (DMS 273 small cell lung): 28.5 µM
TGI (OVCAR-3 ovarian): 26.5 µM
TGI (HCC-2998 colon): 33.9 µM
TGI (HOP-92 NSCLC): 30.7 µM
TGI (MALME-3M melanoma): 24.5 µM
TGI (TK-10 renal): 26.9 µM
TGI (UO-31 renal): 23.7 µM
TGI (KM20L2 colon): 24.6 µM
TGI (M14 melanoma): 28.9 µM
TGI (RXF-631 renal): 37.9 µM
TGI (SK-MEL-28 melanoma): 23.3 µM
TGI (SF-539 CNS): 28.8 µM
TGI (LXFL 529 NSCLC): 27.6 µM
TGI (MOLT-4 leukemia): 42.2 µM
TGI (SK-MEL-2 melanoma): 28.2 µM
TGI (ACHN renal): 25.1 µM
TGI (XF 498 CNS): 19.3 µM
TGI (OVCAR-8 ovarian): 25.7 µM
TGI (SNB-78 CNS): 31.5 µM
TGI (U251 CNS): 24.9 µM
TGI (HL-60(TB) leukemia): 42.5 µM
TGI (SK-OV-3 ovarian): 29.3 µM
TGI (CCRF-CEM leukemia): 46.5 µM
TGI (HOP-18 NSCLC): 26.4 µM
TGI (786-0 renal): 27.4 µM
TGI (SNB-75 CNS): 30.7 µM
TGI (KM12 colon): 26.4 µM
TGI (NCI-H522 lung): 22.9 µM
TGI (K-562 leukemia): 31.3 µM
TGI (SN12C renal): 26.8 µM
TGI (DMS 114 small cell lung): 22.8 µM
TGI (SK-MEL-5 melanoma): 23.6 µM
TGI (SF-295 CNS): 28.2 µM

COc1cc2c(cc1O)[C@H](Cc1ccc(Oc3cc(C[C@H]4c5cc(OC)c(OC)cc5CCN4C)ccc3OC)cc1)NCC2
TGI (UACC-257 melanoma): 29.7 µM
TGI (SF-268 CNS): 23.7 µM
TGI (LOX IMVI melanoma): 22.4 µM
TGI (IGROV1 ovarian): 33 µM
TGI (NCI-H226 lung): 26.2 µM
TGI (HT29 colon): 19.4 µM
TGI (A549 NSCLC): 32.8 µM
TGI (M19-MEL melanoma): 49.2 µM
TGI (HCT-15 colon): 21.4 µM
TGI (NCI-H460 lung): 27.7 µM
TGI (CAKI-1 renal): 19.8 µM
TGI (SR leukemia): 30.1 µM
TGI (COLO 205 colon): 49.5 µM
TGI (SW-620 colon): 25.5 µM
TGI (SNB-19 CNS): 31.9 µM
TGI (OVCAR-5 ovarian): 35 µM
TGI (UACC-62 melanoma): 32.1 µM
TGI (NCI-H23 lung): 24.2 µM
TGI (RPMI-8226 leukemia): 46.8 µM
TGI (DMS 273 small cell lung): 43.2 µM
TGI (OVCAR-3 ovarian): 22.4 µM
TGI (HCC-2998 colon): 18.7 µM
TGI (A498 renal): 28.3 µM
TGI (HOP-92 NSCLC): 20.1 µM
TGI (MALME-3M melanoma): 39.6 µM
TGI (HCT-116 colon): 20.9 µM
TGI (UO-31 renal): 21.2 µM
TGI (KM20L2 colon): 22.7 µM
TGI (M14 melanoma): 3.56 µM
TGI (RXF-631 renal): 32 µM
TGI (SK-MEL-28 melanoma): 30.8 µM
TGI (SF-539 CNS): 22.8 µM
TGI (LXFL 529 NSCLC): 28.2 µM
TGI (MOLT-4 leukemia): 25.5 µM
TGI (SK-MEL-2 melanoma): 32.1 µM
TGI (RXF 393 renal): 18.3 µM
TGI (ACHN renal): 23.6 µM
TGI (XF 498 CNS): 24 µM
TGI (OVCAR-4 ovarian): 27.1 µM
TGI (OVCAR-8 ovarian): 27.8 µM
TGI (U251 CNS): 24.3 µM
TGI (HL-60(TB) leukemia): 34.6 µM
TGI (CCRF-CEM leukemia): 37 µM
TGI (HOP-18 NSCLC): 32.7 µM
TGI (786-0 renal): 25.2 µM
TGI (SNB-75 CNS): 21.8 µM
TGI (KM12 colon): 25.7 µM
TGI (K-562 leukemia): 19.1 µM
TGI (SN12C renal): 31.1 µM
TGI (DMS 114 small cell lung): 40.5 µM
TGI (SF-295 CNS): 24.2 µM
